Measured values from patent publication US9738610B2, “Indazole derivatives and uses thereof” (Whitehead Institute for Biomedical Research, priority 2012, dated 2017).

Key:
[1] = Plasma protein binding; conditions: % bound in human plasma
[2] = Plasma stability; conditions: % remaining in human plasma after a 5-hour incubation
[3] = test system: C. albicans CaCi-8; assay: microbe, parasite or virus in culture; assay type: cell-based, Candida albicans; conditions: in the presence of fluconazole; read-out: Target Potency (μM) Mean ± S.E.M CaCi-8^a IC50
Method: This subset was re-subjected to the primary assay and was also tested concurrently in two secondary assays. Secondary assay 1 measured chemosensitization of the more resistant CaCi-8 strain. Secondary assay 2 eliminated anything with inherently antifungal activity. […] A final assay (secondary assay 3) was incorporated to discard any compound displaying toxicity to mammalian fibroblasts. […] This screening campaign is also illustrated in FIG. 3B.
Those that inhibited growth in the resistant strain were also tested for toxicity against Candida in the absence of fluconazole and for toxicity against mammalian cells using a fluorescence reporter assay. The positive control for screening in the Candida and mammalian cell assays was the Hsp90 inhibitor geldanamycin (acting in concert with fluconazole; FIG. 4). Compounds that passed these four hurdles were binned through use of a Saccharomyces assay to determine whether the mechanism of action might be through the Hsp90 pathway, the calcineurin pathway, or an uncategorized mechanism.

[4] = biological target: T1, yeast (Saccharomyces cerevisiae, UniProt P00163); assay: IC50 values and selectivity of Table 10A (target yeast, anti-target human cytochrome); assay type: biochemical; conditions: for IC50: target is yeast; for Selectivity* (anti-target IC50)/(target IC50): target yeast, anti-target human cytochrome
T1 construct: Mitochondrial membranes were prepared from yeast; endogenous in cells; host or cells: yeast (mitochondrial membranes)
Method: All measurements were performed in triplicate.

SMILES	Plasma Protein Binding [1]	Plasma Stability [2]	IC50 [3]	IC50 [4]	Selectivity* (anti-target IC50)/(target IC50) [4]
COC(=O)Cn1nc(C)c2ccccc21 [Compound 46856254]	42%	3.0%	21.3 ± 8.1 µM		
COC(=O)Cn1nc(-c2ccc(F)cc2F)c2ccccc21 [Compound I-70]				275 nM	58.2
COC(=O)Cn1nc(-c2cccc(C(F)(F)F)c2)c2ccccc21 [Compound I-72]				40 nM	200
CS(=O)(=O)Cn1nc(-c2ccccc2)c2ccccc21 [Compound I-73]				> 80000 nM	
COC(=O)Cn1nc(-c2cccs2)c2ccccc21 [Compound I-76]				1250 nM	32
COC(=O)Cn1nc(-c2cccc(OCCC34CC5CC(CC(C5)C3)C4)c2)c2ccccc21 [Compound I-80]				12.5 nM	20
COC(=O)Cn1nc(-c2ccccc2)c2c(C)cccc21 [Compound I-81]				1250 nM	8
COC(=O)Cn1nc(-c2ccccc2)c2cc(C(F)(F)F)ccc21 [Compound I-83]				40000 nM	3
Cc1nnc(Cn2nc(-c3ccccc3)c3ccccc32)o1 [Compound I-84]				8000 nM	>32
c1ccc(-c2nn(Cc3ncon3)c3ccccc23)cc1 [Compound I-85]				2000 nM	40
Cc1nc(Cn2nc(-c3ccccc3)c3ccccc32)no1 [Compound I-86]				5000 nM	>32
COC(=O)Cn1nc(-c2cc(C(F)(F)F)ccc2F)c2ccccc21 [Compound I-88]				25 nM	200
COC(=O)Cn1nc(-c2ccccc2)c2c(C(F)(F)F)cccc21 [Compound I-89]				10000 nM	3.75
Cn1nnc(Cn2nc(-c3ccccc3)c3ccccc32)n1 [Compound I-90]				1250 nM	32
Cn1nnnc1Cn1nc(-c2ccccc2)c2ccccc21 [Compound I-91]				> 20000 nM	
c1ccc(-c2nn(Cc3c[nH]nn3)c3ccccc23)cc1 [Compound I-93]				25000 nM	>6
Cn1cc(Cn2nc(-c3ccccc3)c3ccccc32)nn1 [Compound I-94]				40000 nM	>4
Cn1nncc1Cn1nc(-c2ccccc2)c2ccccc21 [Compound I-95]				> 20000 nM	
Cn1nnc(Cn2nc(-c3cc(C(F)(F)F)ccc3F)c3ccccc32)n1 [Compound I-98]				63 nM	48
COC(=O)Cn1nc(-c2cc(OCCCC3CCCCC3)ccc2F)c2ccccc21 [Compound I-100]				7 nM	54
COC(=O)Cn1nc(-c2cc(OCCCC3CCCCC3)ccc2F)c2cccc(C)c21 [Compound I-101]				1.5 nM	49

SMILES	Plasma Protein Binding [1]	Plasma Stability [2]	IC50 [3]	IC50 [4]	Selectivity* (anti-target IC50)/(target IC50) [4]
Cc1cccc2c(-c3cc(OCCCC4CCCCC4)ccc3F)nn(Cc3nnn(C)n3)c12 [Compound I-103]				7 nM	71
FC(F)Cn1nc(-c2ccccc2)c2ccccc21 [Compound I-110]				> 120000 nM	
N#Cc1ncccc1-n1nc(-c2ccccc2)c2ccccc21 [Compound I-112]				> 120000 nM	
c1ccc(-c2nn(Cc3ccccn3)c3ccccc23)cc1 [Compound I-114]				> 120000 nM	
COC(=O)Cn1nc(-c2cccnc2)c2ccccc21 [Compound I-121]				15000 nM	
c1ccc(-c2nn(Cc3ncccn3)c3ccccc23)cc1 [Compound I-123]				> 120000 nM	
Fc1ccc(C(F)(F)F)cc1-c1nn(Cc2cnccn2)c2ccccc12 [Compound I-125]				59 nM	340
Cc1cccc2c(-c3cc(C(F)(F)F)ccc3F)nn(Cc3cnccn3)c12 [Compound I-126]				94 nM	320
COC(=O)Cn1nc(-c2c(C)cccc2C)c2ccccc21 [Compound I-127]				> 32000 nM	
COC(=O)Cn1nc(-c2c(F)cccc2F)c2ccccc21 [Compound I-128]				500 nM	32
COC(=O)Cn1nc(-c2cc(F)ccc2F)c2ccccc21 [Compound I-129]				150 nM	133
COC(=O)Cn1nc(-c2cccc(F)c2F)c2ccccc21 [Compound I-130]				250 nM	32
COC(=O)Cn1nc(-c2cc(F)ccc2C)c2ccccc21 [Compound I-131]				400 nM	40
COC(=O)Cn1nc(-c2ccccc2Cl)c2ccccc21 [Compound I-132]				750 nM	32
COC(=O)Cn1nc(-c2cccc(OCc3ccccc3)c2C)c2ccccc21 [Compound I-133]				400 nM	30
COC(=O)Cn1nc(-c2cc(OCc3ccccc3)ccc2C)c2ccccc21 [Compound I-135]				800 nM	3.75
COC(=O)Cn1nc(-c2cccc(OCCN(C)C)c2)c2ccccc21 [Compound I-137]				> 32000 nM	
CCN(CC)CCOc1cccc(-c2nn(CC(=O)OC)c3ccccc23)c1 [Compound I-138]				> 32000 nM	
COC(=O)Cn1nc(-c2cccc(OCCN(C(C)C)C(C)C)c2)c2ccccc21 [Compound I-139]				1000 nM	6
COC(=O)Cn1nc(-c2cccc(OCCC3CCCCC3)c2)c2ccccc21 [Compound I-141]				62.5 nM	12
